Reference: patent EP4342890A1, “PLATFORM AND SCAFFOLD FOR FAP TARGETING AGENTS” (Erasmus University Rotterdam Medical Center, priority 2022, dated 2024)

Assays:
Type in all cases: biochemical
[1] = target: DPP4 (Homo sapiens, UniProt P27487); experiment: In vitro inhibition assay on DPP4 (Z-GP-pNA substrate); conditions: enzymatic assay; 20 µM Z-GP-pNA; unit inferred
[2] = target: T1, murine FAP (Mus musculus, UniProt P97321); experiment: In vitro inhibition assay on mouse FAP (Z-GP-AMC substrate); conditions: enzymatic assay; 20 µM Z-GP-AMC, 20 nM FAP; unit inferred
T1 sequence (P97321 1-761): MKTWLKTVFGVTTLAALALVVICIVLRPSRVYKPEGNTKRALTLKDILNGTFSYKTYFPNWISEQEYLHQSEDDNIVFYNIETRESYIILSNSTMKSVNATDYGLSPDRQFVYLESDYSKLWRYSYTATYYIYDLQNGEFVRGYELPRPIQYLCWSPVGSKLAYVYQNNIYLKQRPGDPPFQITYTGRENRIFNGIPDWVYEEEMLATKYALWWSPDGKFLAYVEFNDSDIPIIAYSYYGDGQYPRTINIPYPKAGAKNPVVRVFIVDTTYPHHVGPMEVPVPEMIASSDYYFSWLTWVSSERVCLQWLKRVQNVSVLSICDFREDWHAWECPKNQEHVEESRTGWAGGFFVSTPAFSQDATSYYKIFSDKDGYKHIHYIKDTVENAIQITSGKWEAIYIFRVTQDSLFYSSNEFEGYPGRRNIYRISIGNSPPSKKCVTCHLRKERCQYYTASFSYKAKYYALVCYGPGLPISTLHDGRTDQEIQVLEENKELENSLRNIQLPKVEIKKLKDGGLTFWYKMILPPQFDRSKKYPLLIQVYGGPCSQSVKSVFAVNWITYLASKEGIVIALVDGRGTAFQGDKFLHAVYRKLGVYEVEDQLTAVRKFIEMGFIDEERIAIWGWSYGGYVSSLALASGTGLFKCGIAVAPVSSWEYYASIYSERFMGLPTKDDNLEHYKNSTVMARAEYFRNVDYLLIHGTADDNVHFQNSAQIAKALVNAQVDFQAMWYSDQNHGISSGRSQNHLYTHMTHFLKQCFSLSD
Protocol: (§1) Enzymatic activity of human FAP (hFAP) and mouse FAP (mFAP) on the Z-GP-AMC substrate was measured at room temperature on a Hidex microplate reader by monitoring the fluorescence at an excitation wavelength of 360 nm and an emission wavelength of 465 nm. The reaction mixture contained 20 µM substrate, 20 nM FAP, assay buffer (50 mM Tris, 100 mM NaCl, 1 mM EDTA, pH 7.4) and tested compound (serial dilution from 10^-6 to 10^-12) in a total volume of 50 µL.

[3] = target: T2, PREP (Homo sapiens, UniProt P48147); experiment: In vitro inhibition assay on PREP (Z-GP-AMC substrate); conditions: enzymatic assay; 20 µM substrate, 2 nM PREP; unit inferred
T2 sequence (P48147 1-710): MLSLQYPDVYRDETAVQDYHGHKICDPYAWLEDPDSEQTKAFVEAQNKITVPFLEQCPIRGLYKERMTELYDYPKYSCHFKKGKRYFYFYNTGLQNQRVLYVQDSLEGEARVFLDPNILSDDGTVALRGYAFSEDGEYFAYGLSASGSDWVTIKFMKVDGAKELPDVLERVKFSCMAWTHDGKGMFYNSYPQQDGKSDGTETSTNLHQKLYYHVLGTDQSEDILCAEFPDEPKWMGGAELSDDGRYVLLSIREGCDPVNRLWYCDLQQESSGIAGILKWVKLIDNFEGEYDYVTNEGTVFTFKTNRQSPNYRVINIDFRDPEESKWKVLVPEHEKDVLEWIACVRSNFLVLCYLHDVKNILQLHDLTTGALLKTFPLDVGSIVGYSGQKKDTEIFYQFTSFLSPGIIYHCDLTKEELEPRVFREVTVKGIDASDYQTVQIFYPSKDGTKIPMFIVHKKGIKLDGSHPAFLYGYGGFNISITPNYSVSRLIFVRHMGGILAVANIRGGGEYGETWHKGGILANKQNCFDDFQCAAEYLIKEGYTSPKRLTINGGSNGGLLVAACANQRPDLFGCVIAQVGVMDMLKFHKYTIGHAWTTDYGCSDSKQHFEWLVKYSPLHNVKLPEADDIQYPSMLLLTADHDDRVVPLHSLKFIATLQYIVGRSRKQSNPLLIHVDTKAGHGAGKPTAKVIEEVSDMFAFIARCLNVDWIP
Protocol: as §1, with “of PREP” for “of human FAP (hFAP) and mouse FAP (mFAP)”, “substrate, 2” for “substrate, 20”, “nM PREP,” for “nM FAP,”, “from 10-6” for “from 10^-6”, “to 10-12)” for “to 10^-12)”

Chain of DPP4 (P27487 39-766): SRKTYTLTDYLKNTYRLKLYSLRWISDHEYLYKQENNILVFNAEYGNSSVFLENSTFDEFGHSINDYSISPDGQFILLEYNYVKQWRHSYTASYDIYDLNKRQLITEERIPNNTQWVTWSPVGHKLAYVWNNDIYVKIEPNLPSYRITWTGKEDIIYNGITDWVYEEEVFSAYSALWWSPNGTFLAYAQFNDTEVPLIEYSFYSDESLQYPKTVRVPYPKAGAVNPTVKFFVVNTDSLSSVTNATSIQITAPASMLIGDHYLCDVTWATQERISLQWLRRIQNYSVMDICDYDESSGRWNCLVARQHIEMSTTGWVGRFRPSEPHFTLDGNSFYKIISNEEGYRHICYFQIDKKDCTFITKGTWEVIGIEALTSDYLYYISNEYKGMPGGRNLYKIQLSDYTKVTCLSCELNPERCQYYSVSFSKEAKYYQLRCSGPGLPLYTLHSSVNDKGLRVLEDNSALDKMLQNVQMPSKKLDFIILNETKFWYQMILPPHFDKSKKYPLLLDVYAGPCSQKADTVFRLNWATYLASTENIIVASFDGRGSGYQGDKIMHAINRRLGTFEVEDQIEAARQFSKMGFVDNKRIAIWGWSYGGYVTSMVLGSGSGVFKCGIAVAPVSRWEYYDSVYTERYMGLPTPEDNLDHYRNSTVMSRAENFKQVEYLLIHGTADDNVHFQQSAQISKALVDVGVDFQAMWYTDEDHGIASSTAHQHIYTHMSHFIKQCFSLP

N#C[C@@H]1CC(F)(F)CN1C(=O)CNC(=O)c1ccnc2c(OCCCNC(=O)CN3CCN(CC(=O)O)CCN(CC(=O)O)CCN(CC(=O)O)CC3)cccc12 [eFAP-6, (S)-2,2',2"-(10-(2-((3-((4-((2-(2-Cyano-4,4-difluoropyrrolidin-1-yl)-2-oxoethyl)carbamoyl)quinolin-8-yl)oxy)propyl)amino)-2-oxoethyl)-1,4,7,10-tetraazacyclododecane-1,4,7-triyl)triacetic acid]
IC50 [1]: > 10000 nM
IC50 [2]: 3.1 ± 2.4 nM
IC50 [3]: 108 ± 42 nM
